Laboratory results taken from patent US20250276995A1, “PRODUCTION METHOD FOR PEPTIDE COMPOUND” (CHUGAI SEIYAKU KABUSHIKI KAISHA, priority 2022, published 2025).

Experiment: Verification of solubility of carbodiimide-derived urea in NMP and DMF
Assay type: physicochemical
Details: for Re-precipitation: 0.77 M, after 24 hours or more
From the text: The concentration of carbodiimide at the time of preactivation performed in the elongation steps of Reference Example 2-3 and Examples 2-4 and 2-5 was 0.77 mol/L. To confirm the risk of precipitation in case that all carbodiimide is converted to urea, the solubility in NMP and DMF was confirmed according to the following procedure, using the DIC-derived urea with which precipitates were confirmed in Reference Examples 2-3 and the DsBC-derived urea with which no precipitates were confirmed in Examples 2-4 and 2-5.
Into 1.5 mL vials with a screw cap, DIC urea (compound SS05) and DsBC urea (compound SS06) synthesized in Example 1-3 were weighed and placed as described in Table 11, and NMP or DMF was added to be each concentration. The mixture was stirred at room temperature for 5 minutes or more, and then allowed to stand to confirm whether the urea was dissolved or not. […]

[1] = solvent DMF, concentration 0.77 M (0.77 mol/L), room temperature
[2] = solvent NMP, concentration 0.77 M (0.77 mol/L), room temperature

| Compound | Dissolved or not (in DMF at 0.17 M or more) | Dissolved or not (in NMP at a concentration of 0.34 M or more) | Dissolved or not (solvent DMF, concentration 0.17 M, room temperature) | Dissolved or not (solvent DMF, concentration 0.34 M, room temperature) | Dissolved or not (solvent DMF, concentration 0.38 M, room temperature) | Dissolved or not (solvent DMF, concentration 0.51 M, room temperature) | Dissolved or not [1] | Dissolved or not (solvent NMP, concentration 0.17 M, room temperature, stirred 5 minutes or more then allowed to stand) | Dissolved or not (solvent NMP, concentration 0.34 M, room temperature) | Dissolved or not (solvent NMP, concentration 0.38 M, room temperature) | Dissolved or not (solvent NMP, concentration 0.51 M, room temperature) | Dissolved or not [2] | Re-precipitation (DMF) | Re-precipitation (NMP) | Dissolved or not (solvent DMF, concentration 0.77 M (0.77 mol/L), room temperature, listed as DsBC Urea (SS06)) | Dissolved or not (solvent NMP, concentration 0.77 M (0.77 mol/L), room temperature, listed as DsBC Urea (SS06)) |
| --- | --- | --- | --- | --- | --- | --- | --- | --- | --- | --- | --- | --- | --- | --- | --- | --- |
| CC(C)NC(=O)NC(C)C [SS05, 1,3-Diisopropylurea] | not fully dissolved | not fully dissolved | not fully dissolved | not fully dissolved | not fully dissolved | not fully dissolved | not fully dissolved | dissolved | not fully dissolved | not fully dissolved | not fully dissolved | not fully dissolved | – | – | – | – |
| CCC(C)NC(=O)NC(C)CC (stereo not shown) [SS06, 1,3-di-sec-butylurea] | – | – | – | – | – | – | completely dissolved | – | – | – | – | completely dissolved | no re-precipitation was confirmed | no re-precipitation was confirmed | dissolved | dissolved |
| CCNC(=O)NC(C)(C)C [SS07, 1-(tert-butyl)-3-ethylurea] | – | – | – | – | – | – | completely dissolved | – | – | – | – | completely dissolved | no re-precipitation was confirmed | no re-precipitation was confirmed | – | – |
